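Assay format: 96-well plates, 48-hour exposure. The concentration for full growth arrest is given as TGI.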
Columns and labels:
Assay in all cases: NCI anticancer screen, dose series, 48 h
[1] = test system: MCF7 breast
[2] = test system: SK-OV-3 ovarian
[3] = test system: HS 578T breast
[4] = test system: HOP-62 NSCLC
[5] = test system: SR leukemia
[6] = test system: HOP-92 NSCLC
[7] = test system: NCI-H23 lung
[8] = test system: TK-10 renal
[9] = test system: A549 NSCLC
[10] = test system: SK-MEL-2 melanoma
[11] = test system: SW-620 colon
[12] = test system: U251 CNS
[13] = test system: COLO 205 colon
[14] = test system: SN12C renal
[15] = test system: NCI-H522 lung
[16] = test system: ACHN renal
[17] = test system: RPMI-8226 leukemia
[18] = test system: SNB-75 CNS
[19] = test system: UACC-62 melanoma
[20] = test system: SNB-19 CNS
[21] = test system: A498 renal
[22] = test system: 786-0 renal
[23] = test system: CAKI-1 renal
[24] = test system: SK-MEL-5 melanoma
[25] = test system: SK-MEL-28 melanoma
[26] = test system: HL-60(TB) leukemia
[27] = test system: HT29 colon
[28] = test system: M14 melanoma
[29] = test system: MDA-MB-231 breast
[30] = test system: OVCAR-5 ovarian
[31] = test system: MDA-MB-435
[32] = test system: HCT-116 colon
[33] = test system: SF-295 CNS
[34] = test system: BT-549 breast
[35] = test system: K-562 leukemia
[36] = test system: NCI-H226 lung
[37] = test system: KM12 colon
[38] = test system: SF-539 CNS
[39] = test system: HCC-2998 colon
[40] = test system: LOX IMVI melanoma
[41] = test system: IGROV1 ovarian
[42] = test system: NCI-H460 lung
[43] = test system: PC-3 prostate
[44] = test system: EKVX NSCLC
[45] = test system: OVCAR-4 ovarian
[46] = test system: SF-268 CNS
[47] = test system: MALME-3M melanoma
[48] = test system: OVCAR-3 ovarian
[49] = test system: DU-145 prostate
[50] = test system: NCI/ADR-RES ovarian
[51] = test system: UO-31 renal
[52] = test system: T-47D breast
[53] = test system: HCT-15 colon
[54] = test system: UACC-257 melanoma
[55] = test system: MDA-N
[56] = test system: OVCAR-8 ovarian
[57] = test system: RXF 393 renal
[58] = test system: MOLT-4 leukemia
[59] = test system: CCRF-CEM leukemia

Structure (SMILES): CCOC(=O)C(C(N)=O)c1nc2cc([N+](=O)[O-])ccc2nc1/C=C(\O)c1ccccc1 (stereo unspecified)
- TGI [1]: 24.8 µM
- TGI [2]: 29 µM
- TGI [3]: 51.2 µM
- TGI [4]: 22.9 µM
- TGI [5]: 16500 nM
- TGI [6]: 39.1 µM
- TGI [7]: 23.7 µM
- TGI [8]: 22.9 µM
- TGI [9]: 32.8 µM
- TGI [10]: 30.4 µM
- TGI [11]: 33.9 µM
- TGI [12]: 23.4 µM
- TGI [13]: 36.5 µM
- TGI [14]: 64.4 µM
- TGI [15]: 29.3 µM
- TGI [16]: 30.7 µM
- TGI [17]: 27.1 µM
- TGI [18]: 43.1 µM
- TGI [19]: 34.9 µM
- TGI [20]: 44.5 µM
- TGI [21]: 33.2 µM
- TGI [22]: 25.5 µM
- TGI [23]: 52 µM
- TGI [24]: 30.4 µM
- TGI [25]: 86.9 µM
- TGI [26]: 26 µM
- TGI [27]: 45.3 µM
- TGI [28]: 34.3 µM
- TGI [29]: 27 µM
- TGI [30]: 83.3 µM
- TGI [31]: 31.3 µM
- TGI [32]: 32.7 µM
- TGI [33]: 42.5 µM
- TGI [34]: 49.9 µM
- TGI [35]: 13.9 µM
- TGI [36]: > 100 µM
- TGI [37]: 26.5 µM
- TGI [38]: 30.2 µM
- TGI [39]: 21.7 µM
- TGI [40]: 28.7 µM
- TGI [41]: 24.8 µM
- TGI [42]: 26.1 µM
- TGI [43]: 30.2 µM
- TGI [44]: 76.5 µM
- TGI [45]: 34.7 µM
- TGI [46]: 32.1 µM
- TGI [47]: 36.7 µM
- TGI [48]: 22 µM
- TGI [49]: 31 µM
- TGI [50]: 34.8 µM
- TGI [51]: 36.6 µM
- TGI [52]: 71.8 µM
- TGI [53]: 28.4 µM
- TGI [54]: 40.4 µM
- TGI [55]: 40.4 µM
- TGI [56]: 30 µM
- TGI [57]: 39.3 µM

Structure (SMILES): N#Cc1c(C#N)c(SSc2c(C#N)c(C#N)c(N)n2-c2ccc(F)cc2)n(-c2ccc(F)cc2)c1N
- TGI [1]: > 24.8 µM
- TGI [2]: 31.4 µM
- TGI [3]: > 58.3 µM
- TGI [58]: 2.99 µM
- TGI [4]: 33.2 µM
- TGI [5]: 1980 nM
- TGI [6]: 7.82 µM
- TGI [7]: 14.3 µM
- TGI [8]: 8.27 µM
- TGI [9]: 36.7 µM
- TGI [10]: 44 µM
- TGI [11]: 5.59 µM
- TGI [12]: 40.1 µM
- TGI [13]: 3.76 µM
- TGI [14]: 31.5 µM
- TGI [15]: 4.11 µM
- TGI [16]: 8.55 µM
- TGI [18]: 32.6 µM
- TGI [19]: 31.7 µM
- TGI [20]: 42.6 µM
- TGI [21]: 18.9 µM
- TGI [22]: 3.22 µM
- TGI [23]: 21.1 µM
- TGI [24]: 31.1 µM
- TGI [25]: 19.9 µM
- TGI [26]: 4.44 µM
- TGI [27]: 36.5 µM
- TGI [28]: 9.07 µM
- TGI [29]: 37.6 µM
- TGI [30]: 30.9 µM
- TGI [31]: 19.2 µM
- TGI [32]: 3.38 µM
- TGI [33]: 31.8 µM
- TGI [59]: 4.62 µM
- TGI [34]: 7.2 µM
- TGI [36]: 46 µM
- TGI [37]: 44.3 µM
- TGI [38]: 35.6 µM
- TGI [39]: 45.3 µM
- TGI [40]: 59.9 µM
- TGI [41]: 37.9 µM
- TGI [42]: 41.2 µM
- TGI [43]: 33.3 µM
- TGI [44]: 5.13 µM
- TGI [45]: > 100 µM
- TGI [46]: 48.2 µM
- TGI [47]: 3.28 µM
- TGI [48]: 6.92 µM
- TGI [49]: 30.6 µM
- TGI [50]: 59.4 µM
- TGI [51]: 3.87 µM
- TGI [52]: 7.96 µM
- TGI [53]: 4.25 µM
- TGI [54]: 32.5 µM
- TGI [55]: 10.8 µM
- TGI [56]: 32.4 µM
- TGI [57]: 8.48 µM

Structure (SMILES): CCCCCCC(C)c1ccc2c(c1)C(=O)c1nc3ccncc3c(=O)n1-2 (stereo unspecified)
- TGI [1]: 32.7 µM
- TGI [2]: > 100 µM
- TGI [3]: 25.6 µM
- TGI [58]: 4.09 µM
- TGI [4]: 35.7 µM
- TGI [5]: 2570 nM
- TGI [6]: > 100 µM
- TGI [7]: > 31.4 µM
- TGI [8]: > 65.8 µM
- TGI [9]: 35.2 µM
- TGI [10]: 18.7 µM
- TGI [11]: > 30.6 µM
- TGI [12]: > 45 µM
- TGI [13]: > 39.1 µM
- TGI [14]: > 34.9 µM
- TGI [16]: > 29.5 µM
- TGI [17]: 3.97 µM
- TGI [18]: > 32.2 µM
- TGI [19]: > 36.9 µM
- TGI [20]: > 33 µM
- TGI [21]: > 100 µM
- TGI [22]: > 45.3 µM
- TGI [23]: > 39.6 µM
- TGI [24]: > 25.4 µM
- TGI [25]: > 31.5 µM
- TGI [26]: 1.18 µM
- TGI [27]: 8.78 µM
- TGI [28]: 11.4 µM
- TGI [29]: > 100 µM
- TGI [30]: 21.7 µM
- TGI [31]: 1.17 µM
- TGI [32]: > 36.8 µM
- TGI [33]: 20.2 µM
- TGI [59]: 5.83 µM
- TGI [34]: > 33.8 µM
- TGI [35]: 2.91 µM
- TGI [36]: > 32.3 µM
- TGI [37]: > 30.5 µM
- TGI [38]: 20.3 µM
- TGI [39]: > 20.5 µM
- TGI [41]: > 34.4 µM
- TGI [42]: > 34.7 µM
- TGI [43]: 16.1 µM
- TGI [44]: > 43.4 µM
- TGI [45]: 10.3 µM
- TGI [46]: > 100 µM
- TGI [47]: 0.9 µM
- TGI [48]: 9.12 µM
- TGI [49]: > 35.1 µM
- TGI [50]: 15.7 µM
- TGI [51]: > 35.7 µM
- TGI [52]: > 40.8 µM
- TGI [53]: > 57.7 µM
- TGI [54]: > 32.1 µM
- TGI [55]: 0.6 µM
- TGI [56]: > 45.2 µM
- TGI [57]: 14.7 µM
